Assay results taken from PubChem BioAssay AID1918994 (Molecular Pharmacology Branch, DTP, NCI, 2023).

Test system: 292921-168-R-J2-PDC complex spheroid growth
Experiment: Anticancer human tumor 292921-168-R-J2-PDC patient-derived pancreatic carcinoma cell line growth inhibition [AhR]
Conditions: for IC50: curve of first compound; for viability, T/C: stronger effect = lower value
From the text: Multicellular complex tumor spheroid response to aryl hydrocarbon receptor antagonists in combination with a variety of drugs and investigational agents in selected tumor cell lines
The current study was undertaken to assess response to aryl hydrocarbon receptor antagonists in combination with standard-of-care drugs and investigational agents in solid tumor complex spheroid models. Complex spheroids include a stromal component modeled by human endothelial cells (HUVEC) and fibroblasts modeled by human mesenchymal stem cells (MSCs). The concentration ranges selected for each drug and investigational agent were based upon clinically achievable concentrations if the clinical Cmax of the agent was known.
Compounds. The drugs and investigational agents: BAY 2416964 (NSC825713), GNF351 (NSC835774), CH-223191 (NSC835775), CPI-455 (NSC825282), aza-TdCyd (NSC777586), decitabine (NSC127716), belinostat (NSC758774), entinostat (NSC756642), pevonedistat (NSC761192), tazemetostat (NSC777109), talazoparib (NSC765396), olaparib (NSC753686), selinexor (NSC780203), nedisertib (M3814, NSC802822), bortezomib (NSC756655), venetoclax (NSC766270), doxorubicin (NSC123127), elimusertib (BAY189344, NSC800525), ceralasertib (AZD6738, NSC777638), TAK-243 (NSC785004), alisertib (NSC759677), etoposide (NSC141540), topotecan (NSC609699), eribulin (NSC707389), gemcitabine (NSC613327), carboplatin (NSC241240), cisplatin (NSC119875), and SN-38 (NSC673596) were obtained from the National Cancer Institute (NCI) Developmental Therapeutics Program Chemical Repository (32). The FDA-approved anticancer drug set is available from the Developmental Therapeutics Program at https://dtp.cancer.gov/organization/dscb/obtaining/available plates.htm. […] The stock solutions were prepared in dimethyl sulfoxide (DMSO, Sigma-Aldrich, St. Louis, MO, cat. D2650), except for the platinum compounds which were prepared in saline (Quality Biological, Gaithersburg, MD, cat. 114-055-101), at 800-fold the tested concentration and stored at -70 degrees C prior to their use. All drugs and investigational agents were tested over a range starting from a high concentration at or near the clinical Cmax and decreasing in half-log increments. If the clinical Cmax for an agent had not been determined, the highest concentration tested was 10 microM (Table 1).
Cell Culture. All cells were maintained in an incubator at 37 degrees C and 5% CO2 with 95% humidity. The PDC lines were cultured according to standard operating procedures established by the NCI PDMR (https://pdmr.cancer.gov). Briefly, all PDCs were thawed and cultured in Matrigel-coated flasks prepared with a working solution of 1X Ham's F-12 nutrient mix, without supplementation (Invitrogen, Waltham, MA, cat. 11765054), 100 U/mL penicillin-streptomycin (Invitrogen, cat. 15140122), and 2.5% Matrigel (Corning Inc., Corning, NY, cat. 354248) for the first three passages. All PDCs were cultured in complete DMEM/F-12 media containing advanced DMEM/F-12 (Invitrogen, cat. 12634028), 4.9% defined fetal bovine serum, heat inactivated (HyClone Laboratories Inc., Logan, UT, cat. SH30070.03HI), 389 ng/mL hydrocortisone (Sigma-Aldrich, cat. H4001), 9.7 ng/mL human EGF recombinant protein (Invitrogen, cat. PHG0313), 23.4 microg/mL adenine (Sigma-Aldrich, cat. A2786), 97.3 U/mL penicillin-streptomycin (Invitrogen, cat. 15140122), 1.9 mM L-glutamine (Invitrogen, cat. 25030081), and 9.7 microM Y-27632 dihydrochloride (Tocris Bioscience, Bristol, United Kingdom, cat. 1254). The PDCs were cultured in complete DMEM/F12 media without 10 microM Y-27632 dihydrochloride for at least two passages prior to the screen. The established cell lines NCI-H1341 and […] were cultured in DMEM/F-12, HEPES (Invitrogen, cat. 11330032), 5% defined fetal bovine serum (HyClone Laboratories Inc., cat. SH30070.03), ITS premix universal culture supplement [insulin (5 microg/mL), transferrin (5 microg/mL), and selenious acid (5 ng/mL)] […]

[1] = second compound 0.1 µM, first compound 0.0316 µM
[2] = second compound 0.1 µM, first compound 0.1 µM
[3] = second compound 0.316 µM, first compound 0.0316 µM
[4] = second compound 0.316 µM, first compound 0.1 µM
[5] = second compound 1 µM, first compound 0.0316 µM
[6] = second compound 1 µM, first compound 0.1 µM
[7] = second compound 3.16 µM, first compound 0.0316 µM
[8] = second compound 3.16 µM, first compound 0.1 µM
[9] = second compound 10 µM, first compound 0.0316 µM
[10] = second compound 10 µM, first compound 0.1 µM
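Further: spheroids exposed to compounds for seven days after three days of growth.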

Q: Which results are given for `CC[C@@]1(O)C(=O)OCc2c1cc1n(c2=O)Cc2cc3c(CN(C)C)c(O)ccc3nc2-1` + CC(CO)NC(=O)c1cc(-c2ccc(Cl)cc2)nn(-c2cnn(C)c2)c1=O?
A: IC50 (second compound 0.1 µM): 29.2 nM; IC50 (second compound 0.316 µM): 28.1 nM; IC50 (second compound 1 µM): 30.7 nM; IC50 (second compound 3.16 µM): 25.5 nM; IC50 (second compound 10 µM): 18.4 nM; viability, T/C (second compound 0.1 µM, first compound 0.000316 µM): 101%; viability, T/C (second compound 0.1 µM, first compound 0.001 µM): 99.9%; viability, T/C (second compound 0.1 µM, first compound 0.00316 µM): 100%; viability, T/C (second compound 0.1 µM, first compound 0.01 µM): 78.6%; viability, T/C [1]: 48.6%; viability, T/C [2]: 21.8%; viability, T/C (second compound 0.316 µM, first compound 0.000316 µM): 104%; viability, T/C (second compound 0.316 µM, first compound 0.001 µM): 103%; viability, T/C (second compound 0.316 µM, first compound 0.00316 µM): 106%; viability, T/C (second compound 0.316 µM, first compound 0.01 µM): 75.2%; viability, T/C [3]: 49.3%; viability, T/C [4]: 24%; viability, T/C (second compound 1 µM, first compound 0.000316 µM): 101%; viability, T/C (second compound 1 µM, first compound 0.001 µM): 98.2%; viability, T/C (second compound 1 µM, first compound 0.00316 µM): 99.5%; viability, T/C (second compound 1 µM, first compound 0.01 µM): 77.4%; viability, T/C [5]: 50.4%; viability, T/C [6]: 23.3%; viability, T/C (second compound 3.16 µM, first compound 0.000316 µM): 91.4%; viability, T/C (second compound 3.16 µM, first compound 0.001 µM): 81.6%; viability, T/C (second compound 3.16 µM, first compound 0.00316 µM): 90.6%; viability, T/C (second compound 3.16 µM, first compound 0.01 µM): 72.5%; viability, T/C [7]: 45.1%; viability, T/C [8]: 23.6%; viability, T/C (second compound 10 µM, first compound 0.000316 µM): 68%; viability, T/C (second compound 10 µM, first compound 0.001 µM): 67.7%; viability, T/C (second compound 10 µM, first compound 0.00316 µM): 63.1%; viability, T/C (second compound 10 µM, first compound 0.01 µM): 62%; viability, T/C [9]: 40%; viability, T/C [10]: 22%

Q: What does the source list for `CCc1c2c(nc3ccc(O)cc13)-c1cc3c(c(=O)n1C2)COC(=O)[C@]3(O)CC` + CC(CO)NC(=O)c1cc(-c2ccc(Cl)cc2)nn(-c2cnn(C)c2)c1=O?
A: IC50 (second compound 0.1 µM): 1.79 nM; IC50 (second compound 0.316 µM): < 0.949 nM; IC50 (second compound 1 µM): 1.02 nM; IC50 (second compound 3.16 µM): < 0.949 nM; IC50 (second compound 10 µM): < 0.949 nM; viability, T/C (second compound 0.1 µM, first compound 0.000949 µM): 55.6%; viability, T/C (second compound 0.1 µM, first compound 0.003 µM): 46.4%; viability, T/C (second compound 0.1 µM, first compound 0.00949 µM): 20.9%; viability, T/C (second compound 0.1 µM, first compound 0.03 µM): 12.4%; viability, T/C (second compound 0.1 µM, first compound 0.0949 µM): 5.44%; viability, T/C (second compound 0.1 µM, first compound 0.3 µM): 3.22%; viability, T/C (second compound 0.316 µM, first compound 0.000949 µM): 49.2%; viability, T/C (second compound 0.316 µM, first compound 0.003 µM): 42%; viability, T/C (second compound 0.316 µM, first compound 0.00949 µM): 22.7%; viability, T/C (second compound 0.316 µM, first compound 0.03 µM): 12%; viability, T/C (second compound 0.316 µM, first compound 0.0949 µM): 6.1%; viability, T/C (second compound 0.316 µM, first compound 0.3 µM): 3.45%; viability, T/C (second compound 1 µM, first compound 0.000949 µM): 49.8%; viability, T/C (second compound 1 µM, first compound 0.003 µM): 43.3%; viability, T/C (second compound 1 µM, first compound 0.00949 µM): 21.9%; viability, T/C (second compound 1 µM, first compound 0.03 µM): 12.9%; viability, T/C (second compound 1 µM, first compound 0.0949 µM): 7.22%; viability, T/C (second compound 1 µM, first compound 0.3 µM): 3.97%; viability, T/C (second compound 3.16 µM, first compound 0.000949 µM): 44.4%; viability, T/C (second compound 3.16 µM, first compound 0.003 µM): 32.9%; viability, T/C (second compound 3.16 µM, first compound 0.00949 µM): 21.2%; viability, T/C (second compound 3.16 µM, first compound 0.03 µM): 11.3%; viability, T/C (second compound 3.16 µM, first compound 0.0949 µM): 6.34%; viability, T/C (second compound 3.16 µM, first compound 0.3 µM): 3.5%; viability, T/C (second compound 10 µM, first compound 0.000949 µM): 38.2%; viability, T/C (second compound 10 µM, first compound 0.003 µM): 31.2%; viability, T/C (second compound 10 µM, first compound 0.00949 µM): 20.5%; viability, T/C (second compound 10 µM, first compound 0.03 µM): 12%; viability, T/C (second compound 10 µM, first compound 0.0949 µM): 6.27%; viability, T/C (second compound 10 µM, first compound 0.3 µM): 4.4%

Q: For `Nc1ccn(C2OC(CO)C(O)C2(F)F)c(=O)n1` (stereo not given) + CC(CO)NC(=O)c1cc(-c2ccc(Cl)cc2)nn(-c2cnn(C)c2)c1=O, which IC50 (second compound 0.1 µM) is on record?
A: < 31.6 nM

Q: What about the IC50 (second compound 0.316 µM) of the same compound?
A: < 31.6 nM

Q: And the IC50 (second compound 1 µM)?
A: < 31.6 nM

Q: What about the IC50 (second compound 3.16 µM) of the same compound?
A: < 31.6 nM

Q: What about the IC50 (second compound 10 µM) of the same compound?
A: < 31.6 nM

Q: And the viability, T/C [1]?
A: 11.7%

Q: What about the viability, T/C [2] of the same compound?
A: 10.2%

Q: And the viability, T/C (second compound 0.1 µM, first compound 0.316 µM)?
A: 11.1%

Q: What about the viability, T/C (second compound 0.1 µM, first compound 1 µM) of the same compound?
A: 11.1%

Q: What about the viability, T/C (second compound 0.1 µM, first compound 3.16 µM) of the same compound?
A: 10.3%

Q: What about the viability, T/C (second compound 0.1 µM, first compound 10 µM) of the same compound?
A: 6.84%

Q: And the viability, T/C [3]?
A: 11.8%

Q: And the viability, T/C [4]?
A: 11.3%

Q: And the viability, T/C (second compound 0.316 µM, first compound 0.316 µM)?
A: 9.79%

Q: What about the viability, T/C (second compound 0.316 µM, first compound 1 µM) of the same compound?
A: 10.8%

Q: And the viability, T/C (second compound 0.316 µM, first compound 3.16 µM)?
A: 11.9%

Q: What about the viability, T/C (second compound 0.316 µM, first compound 10 µM) of the same compound?
A: 6.25%

Q: What about the viability, T/C [5] of the same compound?
A: 12%

Q: What about the viability, T/C [6] of the same compound?
A: 11.8%

Q: And the viability, T/C (second compound 1 µM, first compound 0.316 µM)?
A: 11.7%

Q: What about the viability, T/C (second compound 1 µM, first compound 1 µM) of the same compound?
A: 11.1%

Q: What about the viability, T/C (second compound 1 µM, first compound 3.16 µM) of the same compound?
A: 11.9%

Q: And the viability, T/C (second compound 1 µM, first compound 10 µM)?
A: 7.23%

Q: And the viability, T/C [7]?
A: 12.2%

Q: What about the viability, T/C [8] of the same compound?
A: 10.9%

Q: And the viability, T/C (second compound 3.16 µM, first compound 0.316 µM)?
A: 12.2%

Q: And the viability, T/C (second compound 3.16 µM, first compound 1 µM)?
A: 11%

Q: And the viability, T/C (second compound 3.16 µM, first compound 3.16 µM)?
A: 10.5%

Q: And the viability, T/C (second compound 3.16 µM, first compound 10 µM)?
A: 6.81%

Q: And the viability, T/C [9]?
A: 14.2%

Q: And the viability, T/C [10]?
A: 12.8%

Q: And the viability, T/C (second compound 10 µM, first compound 0.316 µM)?
A: 11.9%

Q: What about the viability, T/C (second compound 10 µM, first compound 1 µM) of the same compound?
A: 11.6%

Q: What about the viability, T/C (second compound 10 µM, first compound 3.16 µM) of the same compound?
A: 10.3%

Q: And the viability, T/C (second compound 10 µM, first compound 10 µM)?
A: 8.31%
